Test results: US8288416B2, “Substituted piperidinophenyl oxazolidinones” (Wockhardt Ltd., priority 2006, dated 2012)
Structures can show the parent of a compound that is named as a salt. Where two headings read alike, the source gives them in different places. Values belong to the molecule of their own block, whether it stands above or below them.

What was measured:
Aqueous solubility = format: physicochemical; settings: for solubility: aqueous
[1] = pH 7, aqueous buffer, pH 7, read-out: Aqueous solubility at pH 7

solubility (Aqueous solubility; [1]): > 100 mg/mL
SMILES: COCC1(OC(=O)C(C)N)CCN(c2c(F)cc(N3C[C@H](CNC(C)=O)OC3=O)cc2F)CC1.Cl (stereo partly drawn) [Example 14, 2-Amino-propionic acid 1-{4-[(S)-5-(acetylamino-methyl)-2-oxo-oxazolidin-3-yl]-2,6-difluorophenyl}-4-methoxymethyl-piperidin-4-yl ester hydrochloride salt]

SMILES: COCC1(OP(=O)(O)O)CCN(c2c(F)cc(N3C[C@H](CNC(C)=O)OC3=O)cc2F)CC1 [Example 3, Phosphoric acid mono-(1-{4-[(S)-5-(acetylamino-methyl)-2-oxo-oxazolidin-3-yl]-2,6-difluorophenyl}-4-methoxymethyl-piperidin-4-yl)ester]
solubility (Aqueous solubility; pH not stated, read-out: Aqueous solubility): > 200 mg/mL
melting point: > 140 °C

Aqueous solubility at pH 7 (Aqueous solubility; pH 7): > 100 mg/ml
SMILES: COCC1(OC(=O)CN)CCN(c2c(F)cc(N3C[C@H](CNC(C)=O)OC3=O)cc2F)CC1.O=C(O)C(F)(F)F [Example 12, 2-Amino-acetic acid 1-{4-[(S)-5-(acetylamino-methyl)-2-oxo-oxazolidin-3-yl]-2,6-difluorophenyl}-4-methoxymethyl-piperidin-4-yl ester triflouroacetic acid salt]

SMILES: COCC1(OP(=O)(O)O)CCN(c2c(F)cc(N3C[C@H](CNC(C)=O)OC3=O)cc2F)CC1 [Example 6, Phosphoric acid mono-(1-{4-[(S)-5-(acetylamino-methyl)-2-oxo-oxazolidin-3-yl]-2,6-difluoro-phenyl}-4-methoxymethyl-piperidin-4-yl)ester magnesium salt]
Aqueous solubility at pH 7 (Aqueous solubility; pH 7): ~2 mg/ml

SMILES: COCC1(OP(=O)(O)O)CCN(c2c(F)cc(N3C[C@H](CNC(C)=O)OC3=O)cc2F)CC1 [Example 4, Phosphoric acid mono-(1-{4-[(S)-5-(acetylamino-methyl)-2-oxo-oxazolidin-3-yl]-2,6-difluoro-phenyl}-4-methoxymethyl-piperidin-4-yl)ester di sodium salt]
Aqueous solubility at pH 7 (Aqueous solubility; pH 7, di sodium salt): > 200 mg/ml

SMILES: COCC1(C(=O)[C@H](C)NC(=O)OC(C)(C)C)CCN(c2c(F)cc(N3C[C@H](CNC(C)=O)OC3=O)cc2F)CC1 [Example 13, (S)—N-{3-[3,5-difluoro-4-(4-(S)-2-tert-butoxycarbonylamino-propionyl-4-methoxymethyl-piperidine-1-yl)phenyl]-2-oxo-oxazolidin-5-ylmethyl}-acetamide]
Aqueous solubility at pH 7 (Aqueous solubility; pH 7): > 100 mg/ml

Aqueous solubility at pH 7 (Aqueous solubility; pH 7): > 100 mg/ml
SMILES: COCC1(OC(=O)C(C)N)CCN(c2c(F)cc(N3C[C@H](CNC(C)=O)OC3=O)cc2F)CC1.O=C(O)C(F)(F)F (stereo partly drawn) [Example 15, 2-Amino-propionic acid 1-{4-[(S)-5-(acetylamino-methyl)-2-oxo-oxazolidin-3-yl]-2,6-difluorophenyl}-4-methoxymethyl-piperidin-4-yl ester triflouroacetic acid salt]

solubility (Aqueous solubility; [1]): > 100 mg/mL
SMILES: COCC1(OC(=O)CN)CCN(c2c(F)cc(N3C[C@H](CNC(C)=O)OC3=O)cc2F)CC1.Cl [Example 11, 2-Amino-acetic acid 1-{4-[(S)-5-(acetylamino-methyl)-2-oxo-oxazolidin-3-yl]-2,6-difluorophenyl}-4-methoxymethyl-piperidin-4-yl ester hydrochloride salt]

SMILES: COCC1(OP(=O)(O)O)CCN(c2c(F)cc(N3C[C@H](CNC(C)=O)OC3=O)cc2F)CC1 [Example 5, Phosphoric acid mono-(1-{4-[(S)-5-(acetylamino-methyl)-2-oxo-oxazolidin-3-yl]-2,6-difluoro-phenyl}-4-methoxymethyl-piperidin-4-yl)ester di potassium salt]
Aqueous solubility at pH 7 (Aqueous solubility; pH 7, di potassium salt): > 200 mg/ml

SMILES: COCC1(OP(=O)([O-])[O-])CCN(c2c(F)cc(N3C[C@H](CNC(C)=O)OC3=O)cc2F)CC1.[Ca+2] [Example 7, Phosphoric acid mono-(1-{4-[(S)-5-(acetylamino-methyl)-2-oxo-oxazolidin-3-yl]-2,6-difluoro-phenyl}-4-methoxymethyl-piperidin-4-yl)ester calcium salt]
solubility (Aqueous solubility; [1]): ~0.5 mg/mL

SMILES: COCC1(OC(=O)C(N)C(C)C)CCN(c2c(F)cc(N3C[C@H](CNC(C)=O)OC3=O)cc2F)CC1.CS(=O)(=O)O (stereo partly drawn) [Example 17, 2-Amino-3,3-dimethylpropionic acid 1-{4-[(S)-5-(acetylamino-methyl)-2-oxo-oxazolidin-3-yl]-2,6-difluorophenyl}-4-methoxymethyl-piperidin-4-yl ester methane sulfonic acid salt]
solubility (Aqueous solubility; pH 7, aqueous buffer, read-out: Aqueous solubility at pH 7): > 100 mg/mL

SMILES: COCC1(C(=O)[C@@H](NC(=O)OCc2ccccc2)C(C)C)CCN(c2c(F)cc(N3C[C@H](CNC(C)=O)OC3=O)cc2F)CC1 [Example 16, (S)—N-{3-[3,5-Difluoro-4-(4-(S)-2-carbobenzyloxyamino-3,3-dimethylpropionyl-4-methoxymethyl-piperidine-1-yl)phenyl]-2-oxo-oxazolidin-5-ylmethyl}-acetamide]
Aqueous solubility at pH 7 (Aqueous solubility; pH 7): > 100 mg/ml
